≈ marks a conversion by molar mass, not a printed value.
What was measured:
CHL cells = test: Evaluation of cell toxicity (CCK8 cell viability); format: cell-based
Experimental: CHL cells are seeded in a 96-well culture plate at a density of 4000 cells per well and incubated overnight at 37° C. in a 5% CO2 incubator. The culture medium is then replaced with 100 μL of medium containing different concentrations of ALC-0315, SM-102, and compounds prepared according to embodiments 1 and 2 of the present invention (specific concentrations are shown in FIG. 1), and cells are further incubated for 48 hours. Subsequently, 10 μL of CCK8 solution is added to each well and incubated for an additional 4 hours in the cell culture incubator. After the incubation, the absorbance at 450 nm is measured using a microplate reader, and cell viability is calculated. The IC50 values are calculated using GraphPad Prism software (version 8.01).

[1] = system: RBD of the wild-type Delta strain S protein; test: Immunostimulatory efficacy of LNPs@Delta S-2P mRNA (serum antibody titers by ELISA); format: in vivo, Balb/c mice; settings: for GMT: i.m.
Fluc mRNA expression [2] = test: In vivo expression of LNPs@Fluc mRNA via intravenous injection (organ bioluminescence, IVIS); parameters: species or system NIH mouse; settings: intravenous (tail vein), 10 μg FLuc mRNA per mouse, 6 hours after administration; vs MC3, ALC-0315, SM-102
Experimental: Furthermore, the ability of LNPs@mRNA prepared using compounds of the present invention to deliver mRNA in vivo was investigated. The inventors chose firefly luciferase as the reporter gene to label mRNA, referred to as Fluc mRNA. Following the method outlined in Example 3, LNPs@Fluc mRNA were prepared using different ionizable lipids (Compound 8, MC3, ALC-0315, or SM-102), referred to as LNP@Fluc mRNA formulation, MC3@Fluc mRNA, ALC-0315@Fluc mRNA, and SM-102@Fluc mRNA, respectively. These formulations were administered via intravenous injection (Step 2.1 of this example) and intramuscular injection (Step 2.2 of this example) to investigate the ability of LNPs@mRNA formulations prepared using compounds of the present invention to express mRNA in vivo and the distribution of expression. […]
(§1) Each formulation's mRNA concentration was adjusted to 0.05 mg/mL using PBS solution, and the osmolarity of each formulation was adjusted to isotonic. […] The heart, liver, spleen, lungs, and kidneys were rapidly dissected, and the bioluminescence intensity of each excised organ was measured using an IVIS instrument with an exposure time of 60 s. Total flux of each organ was calculated after imaging. […]

Fluc mRNA expression [3] = test: In vivo expression of LNPs@Fluc mRNA via intramuscular injection (bioluminescence, IVIS); parameters: species or system BALB/c mouse; settings: 20 μg FLuc mRNA per mouse, 8 hours after administration, vs MC3, ALC-0315, SM-102
Experimental: Furthermore, the ability of LNPs@mRNA prepared using compounds of the present invention to deliver mRNA in vivo was investigated. The inventors chose firefly luciferase as the reporter gene to label mRNA, referred to as Fluc mRNA. Following the method outlined in Example 3, LNPs@Fluc mRNA were prepared using different ionizable lipids (Compound 8, MC3, ALC-0315, or SM-102), referred to as LNP@Fluc mRNA formulation, MC3@Fluc mRNA, ALC-0315@Fluc mRNA, and SM-102@Fluc mRNA, respectively. These formulations were administered via intravenous injection (Step 2.1 of this example) and intramuscular injection (Step 2.2 of this example) to investigate the ability of LNPs@mRNA formulations prepared using compounds of the present invention to express mRNA in vivo and the distribution of expression.
The formulations LNPs@Fluc mRNA (Compound 8), the positive control formulation MC3@Fluc mRNA, ALC-0315@Fluc mRNA, and SM-102@Fluc mRNA, abbreviated as follows, were prepared as described above.
as §1, with “0.1” for “0.05”, “The” for “The heart, liver, spleen, lungs, and kidneys were rapidly dissected, and the”, “the entire body of the live mice” for “each excised organ”

[4] = Table 3: 1 μg each time, two administrations 14 days apart, serum 28 days after the initial immunization
[5] = CHL cells, 48 hours incubation, CCK8, cell viability
[6] = Day 14, dose 0.1 μg, LNPs@Delta S-2P mRNA prepared with the lipid
[7] = Day 14, dose 1 μg, LNPs@Delta S-2P mRNA prepared with the lipid
[8] = Day 14, dose 5 μg, LNPs@Delta S-2P mRNA prepared with the lipid
[9] = Day 28, dose 0.1 μg, two administrations 14 days apart
[10] = Day 28, dose 1 μg, two administrations 14 days apart
[11] = Day 28, dose 5 μg, two administrations 14 days apart

CCCCCCCCC(CCCCCC)CNC(=O)NCCCCCCN(CCCCCCCO)CCCCCCNC(=O)NCC(CCCCCC)CCCCCCCC (stereo not drawn) [Compound 10]
IC50 (CHL cells; CHL, 48 h): 153 µg/mL (≈ 177 µM)
GMT [1, 4]: 299,812.1

CCCCCCCCC(CCCCCC)C(=O)OCCCCCCN(CCCCO)CCCCCCOC(=O)C(CCCCCC)CCCCCCCC (stereo not drawn) [ALC-0315, reference compound]
IC50 (CHL cells; [5]): 29.9 µg/mL (≈ 39 µM)

CCCCCCCCC(CCCCCC)CNC(=O)NCCCCCCCCCN(CCCCO)CCCCCCCCCNC(=O)NCC(CCCCCC)CCCCCCCC (stereo not drawn) [Compound 12]
IC50 (CHL cells; CHL, 48 h): 195 µg/mL (≈ 215 µM)
GMT [1, 4]: 449,359.1

CCCCCCCCCCCOC(=O)CCCCCN(CCO)CCCCCCCC(=O)OC(CCCCCCCC)CCCCCCCC [SM-102, reference compound]
IC50 (CHL cells; [5]): 55.9 µg/mL (≈ 78.7 µM)
GMT [1, 6]: 712.7
GMT [1, 7]: 2262.7
GMT [1, 8]: 18101.9
GMT [1, 9]: 18101.9
GMT [1, 10]: 81274.9
GMT [1, 11]: 325099.7
GMT [1, 4]: 81,274.9

CCCCCCCCCCCCNC(=O)NCCCCCCN(CCCCO)CCCCCCNC(=O)NCC(CCCCCC)CCCCCCCC (stereo not drawn) [Compound 21]
IC50 (CHL cells; CHL, 48 h): 119 µg/mL (≈ 156 µM)
GMT [1, 4]: 208,203.5

CCCCCCCCC(CCCCCC)CNC(=O)NCCCCCN(CCCCO)CCCCCNC(=O)NCC(CCCCCC)CCCCCCCC (stereo not drawn) [Compound 11]
IC50 (CHL cells; CHL, 48 h): 137 µg/mL (≈ 173 µM)
GMT [1, 4]: 473,681.3

CCCCCCCCC(CCCCCCCC)CNC(=O)NCCCCCCN(CCCCO)CCCCCCNC(=O)NCC(CCCCCCCC)CCCCCCCC [Compound 17]
IC50 (CHL cells; CHL, 48 h): 174 µg/mL (≈ 198 µM)
GMT [1, 4]: 299,707.3

CCCCCCCCC(CCCCCC)CNC(=O)NCCCCCCN(CCCO)CCCCCCNC(=O)NCC(CCCCCC)CCCCCCCC (stereo not drawn) [Compound 7]
IC50 (CHL cells; CHL, 48 h): 126 µg/mL (≈ 155 µM)
GMT [1, 4]: 341,832.9

CCCCCCC(CCCCCC)CNC(=O)NCCCCCCN(CCCCO)CCCCCCNC(=O)NCC(CCCCCC)CCCCCC [Compound 16]
IC50 (CHL cells; CHL, 48 h): 134 µg/mL (≈ 174 µM)
GMT [1, 4]: 244,238.6

CCCCCCCCC(CCCCCC)CNC(=O)NCCCCCCCCCCCCN(CCCCO)CCCCCCCCCCCCNC(=O)NCC(CCCCCC)CCCCCCCC (stereo not drawn) [Compound 13]
IC50 (CHL cells; CHL, 48 h): 136 µg/mL (≈ 137 µM)
GMT [1, 4]: 210,944.0

CCCCCCCCC(CCCCCC)CNC(=O)NCCCCCCN(CCCCCO)CCCCCCNC(=O)NCC(CCCCCC)CCCCCCCC (stereo not drawn) [Compound 9]
IC50 (CHL cells; CHL, 48 h): 152 µg/mL (≈ 182 µM)
GMT [1, 4]: 452,334.1

CCCCCCCCC(CCCCCC)CNC(=O)NCCCCCCCCCCCCN(CCCCO)CCCCCCNC(=O)NCC(CCCCCC)CCCCCCCC (stereo not drawn) [Compound 15]
IC50 (CHL cells; CHL, 48 h): 147 µg/mL (≈ 162 µM)
GMT [1, 4]: 400,363.5

CCCCCCCCC(CCCCCC)CNC(=O)NCCCCCCN(CCCCO)CCCCCCNC(=O)NCC(CCCCCC)CCCCCCCC (stereo not drawn) [Compound 8]
IC50 (CHL cells; CHL, 48 h): 166 µg/mL (≈ 202 µM)
mRNA expression capability based on the total bioluminescence emitted (Fluc mRNA expression [2]): stronger mRNA expression capability compared to the three positive control materials
mRNA expression capability based on the total bioluminescence emitted (Fluc mRNA expression [3]): stronger mRNA expression capability compared to the three positive control materials
Compound 8 GMT/SM-102 GMT ([1]; Day 14, dose 0.1 μg): 6.3
GMT [1, 6]: 4525.5
Compound 8 GMT/SM-102 GMT ([1]; Day 14, dose 1 μg): 14.3
GMT [1, 7]: 32254.0
Compound 8 GMT/SM-102 GMT ([1]; Day 14, dose 5 μg): 4.5
GMT [1, 8]: 81274.9
Compound 8 GMT/SM-102 GMT ([1]; Day 28, dose 0.1 μg): 3.6
GMT [1, 9]: 64508.0
Compound 8 GMT/SM-102 GMT ([1]; Day 28, dose 1 μg): 4.0
GMT [1, 10]: 325099.7
Compound 8 GMT/SM-102 GMT ([1]; Day 28, dose 5 μg): 2.5
GMT [1, 11]: 819200.0
GMT [1, 4]: 325,099.7
